LD50, Control and IC50 data for 28 molecules are collected here from ChEMBL document CHEMBL1125437, “Syntheses, resolution, and structure-activity relationships of potent acetylcholinesterase inhibitors: 8-carbaphysostigmine analogues” (J Med Chem, 1992).

Where only a bound is given, the exact number is not on record here.

For orientation: LD50 means the dose at which mortality reaches 50%. A higher LD50 goes with a less toxic substance. The IC50 is the midpoint of a concentration-inhibition curve.

Series [1] deals with Mus musculus. Briefly: (§1) In vitro lethality measured at 24 hours in mice following intraperitoneal administration. As to conditions: in vivo, ip, 24 h.
Series [2] relates to Mus musculus. Briefly: Percent elevation of ACh level in mouse forebrain following intraperitoneal administration at a dose of 1.2 mg/kg. It counts as functional.
In series [3] the target is T1, Acetylcholinesterase (Homo sapiens, UniProt P22303). Briefly: In vitro inhibitory activity against human AchE (Acetylcholinesterase).
T1 sequence (P22303 whole entry): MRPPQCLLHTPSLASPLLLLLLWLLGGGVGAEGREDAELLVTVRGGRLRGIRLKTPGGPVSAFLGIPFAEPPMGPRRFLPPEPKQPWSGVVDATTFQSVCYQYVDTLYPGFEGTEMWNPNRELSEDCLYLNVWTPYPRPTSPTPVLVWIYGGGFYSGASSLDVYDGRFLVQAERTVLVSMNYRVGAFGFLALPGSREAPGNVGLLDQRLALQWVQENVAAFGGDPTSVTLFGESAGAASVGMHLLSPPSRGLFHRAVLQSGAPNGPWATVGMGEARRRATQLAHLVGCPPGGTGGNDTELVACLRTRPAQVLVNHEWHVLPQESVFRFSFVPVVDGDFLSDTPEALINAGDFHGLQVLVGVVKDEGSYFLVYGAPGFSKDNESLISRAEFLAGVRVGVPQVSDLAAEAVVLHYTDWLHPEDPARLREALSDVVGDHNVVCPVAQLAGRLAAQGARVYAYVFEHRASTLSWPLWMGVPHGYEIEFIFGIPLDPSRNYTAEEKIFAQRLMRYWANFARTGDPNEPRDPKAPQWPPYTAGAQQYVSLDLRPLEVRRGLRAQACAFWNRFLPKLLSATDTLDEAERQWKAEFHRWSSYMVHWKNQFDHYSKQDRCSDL
The target of series [4] is T1, Acetylcholinesterase. Briefly: In vitro inhibitory activity against human Acetylcholinesterase.
Series [5] is described as follows: as §1. As to conditions: mouse, in vivo, ip, LD50.
The subject of series [6] is Mus musculus. Kind of series: Percent elevation of ACh level in mouse forebrain following intraperitoneal administration at a dose of 3.4 mg/kg. It counts as functional.
Series [7] concerns Mus musculus. Kind of series: Percent elevation of ACh level in mouse forebrain following intraperitoneal administration at a dose of 1.6 mg/kg. Type of series: functional.
Series [8] relates to Mus musculus. Briefly: Percent elevation of ACh level in mouse forebrain following intraperitoneal administration at a dose of 4.8 mg/kg. Type of series: functional.
Series [9] relates to Mus musculus. Briefly: Percent elevation of ACh level in mouse forebrain following intraperitoneal administration at a dose of 2.0 mg/kg. Type of series: functional.
Series [10] relates to Mus musculus. Kind of series: Percent elevation of ACh level in mouse forebrain following intraperitoneal administration at a dose of 0.8 mg/kg. It counts as functional.
Series [11] has as its system Mus musculus. Briefly: Percent elevation of ACh level in mouse forebrain following intraperitoneal administration at a dose of 0.4 mg/kg. It counts as functional.

Turning to `CCCCCCCNC(=O)Oc1ccc2c(c1)[C@]1(C)CCN(CC)C1C2` (single isomer, unassigned; (-)), the LD50 in [1] came to 6 mg/kg. The Control in series [2] is given as 129%. In addition, the midpoint of inhibition in series [3], the IC50, lay at 36 nM.

`CCCCCCNC(=O)Oc1ccc2c(c1)[C@]1(C)CCN(CC)C1C2` (single isomer, unassigned; (+)) came in with a median lethal dose (LD50) in [1] of 32 mg/kg. This molecule also yielded an IC50 in series [3] of 233 nM.

With `CCN1CC[C@@]2(C)c3cc(OC(=O)N[C@@H](C)c4ccccc4)ccc3CC12` (stereo partly drawn), in series [3], the concentration for half-maximal inhibition (IC50) was 1330 nM.

In series [1], `CCCCCCCNC(=O)Oc1ccc2c(c1)[C@]1(C)CCN(CC)C1C2` (single isomer, unassigned; (+)) came in with an LD50 of 18 mg/kg. This molecule also registered an IC50 in [3] of 211 nM.

`CCCCCCCNC(=O)Oc1ccc2c(c1)[C@]1(C)CCN(Cc3ccccc3)C1C2` (stereo partly drawn) gave an IC50 in series [4] of 506 nM.

Molecule `CCCCCCNC(=O)Oc1ccc2c(c1)[C@]1(C)CCN(CCC)C1C2.Cc1ccc(C(=O)OC(C(=O)O)C(OC(=O)c2ccc(C)cc2)C(=O)O)cc1.O` (mixture of isomers) registered an IC50 in [4] of 62 nM. In [5], this molecule returned an LD50 at 24 h of 17 mg/kg. In series [6], this molecule gave a Control of 141%.

In turn, `CCN1CC[C@@]2(C)c3cc(OC(=O)NC)ccc3CC12` (mixture of isomers) gave an IC50 in [4] of 38 nM. The molecule also yielded an LD50 at 24 h in series [5] of 0.88 mg/kg.

Take `CCN1CC[C@@]2(C)c3cc(OC(=O)Nc4ccccc4)ccc3CC12` (mixture of isomers): the LD50 at 24 h in [5] was 8 mg/kg. The same molecule had a Control in series [7] of 121%. In addition, the IC50 in series [3] came out at 176 nM.

For the molecule `CCCCCCCNC(=O)Oc1ccc2c(c1)[C@]1(C)CCN(C)[C@@H]1N2C` [EPTASTIGMINE], the LD50 at 24 h in series [5] turned out to be 24 mg/kg. The Control in series [8] came out at 148%. The molecule also showed an IC50 in series [3] of 110 nM.

Turning to `CCCCNC(=O)Oc1ccc2c(c1)[C@@H]1CCN(CC)C1C2` (mixture of isomers), the LD50 at 24 h in series [5] is over 32 mg/kg. In [3], this molecule displayed an IC50 of 1080 nM.

As for `CCCCCCCNC(=O)Oc1ccc2c(c1)[C@]1(C)CCN(C)C1C2` (stereo partly drawn), the LD50 at 24 h in [5] came to 21 mg/kg. For the same molecule, inhibition in [3] was half-maximal at 114 nM (IC50).

`CCCCCCCNC(=O)Oc1ccc2c(c1)[C@]1(C)CCN(CC)C1C2` (mixture of isomers): in series [1], the LD50 came out at 9 mg/kg. This molecule also yielded an IC50 in series [3] of 58 nM.

As to `CCCCCCNC(=O)Oc1ccc2c(c1)[C@]1(C)CCN(C)C1C2` (mixture of isomers), in [5], the LD50 at 24 h was determined as 10 mg/kg. The Control in series [9] was 162%. The same molecule gave an IC50 in series [3] of 77 nM.

In the case of `CCCCCCNC(=O)Oc1ccc2c(c1)[C@]1(C)CCN(CC)C1C2` (single isomer, unassigned; (-)), the LD50 in [1] turned out to be 4 mg/kg. For the same molecule, the Control in series [10] was 148%. Moreover, in series [3], the IC50 is 20 nM.

As for `CCN1CC[C@@]2(C)c3cc(OC(=O)NC(C)(C)C)ccc3CC12` (mixture of isomers), the LD50 at 24 h in [5] was over 100 mg/kg.

Turning to `CCCCCCNC(=O)Oc1ccc2c(c1)[C@@H]1CCN(CC)C1C2` (mixture of isomers), the LD50 at 24 h in [5] was 19 mg/kg. The molecule also returned an IC50 in [3] of 208 nM.

For `CCN1CC[C@@]2(C)c3cc(OC(=O)NCc4ccccc4)ccc3CC12` (mixture of isomers), the LD50 at 24 h in series [5] amounted to 2 mg/kg. This molecule had a Control in series [11] of 123%.

Consider `CCCCNC(=O)Oc1ccc2c(c1)[C@]1(C)CCN(CC)C1C2` (mixture of isomers), for which inhibition in [4] was half-maximal at 90 nM (IC50). In [5], this molecule displayed an LD50 at 24 h of 4 mg/kg.

For the molecule `CCCCCCCNC(=O)Oc1ccc2c(c1)[C@@H]1CCN(CC)C1C2` (mixture of isomers), in [4], the IC50 came out at 381 nM. Further, the LD50 at 24 h in series [5] is 58 mg/kg.

Take `CCN1CC[C@H]2c3cc(OC(=O)NC)ccc3CC21` (stereo partly drawn): half-maximal inhibition in series [3] (IC50) was put at 253 nM.

The molecule `CCCCCCCNC(=O)Oc1ccc2c(c1)[C@@H]1CCN(CCC)C1C2` (stereo partly drawn) gave an IC50 in series [3] of 629 nM.

Molecule `CCCCCCCNC(=O)Oc1ccc2c(c1)[C@]1(C)CCN(CCC)C1C2` (stereo partly drawn) returned an IC50 in series [4] of 93 nM. In series [5], this molecule gave an LD50 at 24 h of 27 mg/kg.

The molecule `CCCNC(=O)Oc1ccc2c(c1)[C@]1(C)CCN(CC)C1C2` (mixture of isomers) yielded an LD50 at 24 h in series [5] of 6 mg/kg. Moreover, half-maximal inhibition in [3] (IC50) required 154 nM.

In turn, `CCCCCCNC(=O)Oc1ccc2c(c1)[C@@H]1CCN(CCC)C1C2` (stereo in doubt; 1z) returned an IC50 in [3] of 518 nM.

Consider `CCCCCCNC(=O)Oc1ccc2c(c1)[C@@H]1CCN(CCC)C1C2` (stereo in doubt; 1y), for which, in [3], the IC50 came out at 546 nM.

Molecule `CNC(=O)Oc1ccc2c(c1)[C@]1(C)CCN(C)[C@@H]1N2C` [PHYSOSTIGMINE] showed an LD50 at 24 h in series [5] of 0.88 mg/kg.

`CCCNC(=O)Oc1ccc2c(c1)[C@@H]1CCN(CC)C1C2` (stereo partly drawn) came in with an IC50 in series [3] of 2190 nM.

For the molecule `CCCCCCNC(=O)Oc1ccc2c(c1)[C@]1(C)CCN(CC)C1C2` (mixture of isomers), the LD50 in series [1] is 5 mg/kg. In series [3], this molecule displayed an IC50 of 45 nM.
